From patent US6737383B1, “Herbicidal oxadiazolidines” (priority 1999, dated 2004)

What was measured:
[1] = tested on: morningglory; test: Test B pre/postemergence morningglory; format: in vivo, Ipomoea hederacea
Method in brief: (§1)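 Herbicidal effect was estimated by eye on a ten-point control scale after plants spent twelve to sixteen days in a greenhouse following soil or foliar treatment. Foliar sprays targeted plants at one to four leaves; all doses were formulated in a non-phytotoxic solvent with surfactant.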

[2] = tested on: purple nutsedge; test: Test B pre/postemergence purple nutsedge; format: in vivo, Cyperus rotundus
Method in brief: as §1

[3] = tested on: smallflower flatsedge; test: Test B flood test smallflower flatsedge; format: in vivo, Cyperus difformis
Method in brief: (§2)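 Each value is a visual injury score relative to controls, with 10 meaning complete control and 0 no effect. Evaluation took place twelve to sixteen days after the 2-leaf-stage plants were treated and kept in the greenhouse.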

[4] = tested on: crabgrass; test: Test B pre/postemergence crabgrass; format: in vivo, Digitaria sanguinalis
Method in brief: as §1

[5] = tested on: corn; test: Test B pre/postemergence corn; format: in vivo, Zea mays
Method in brief: as §1

[6] = tested on: soybean; test: Test B pre/postemergence soybean; format: in vivo, Glycine max
Method in brief: as §1

[7] = tested on: rice; test: Test B flood test rice; format: in vivo, Oryza sativa
Method in brief: as §2

[8] = tested on: blackgrass; test: Test B pre/postemergence blackgrass; format: in vivo, Alopecurus myosuroides
Method in brief: as §1

[9] = tested on: cocklebur; test: Test B pre/postemergence cocklebur; format: in vivo, Xanthium strumarium
Method in brief: as §1

[10] = tested on: pigweed; test: Test B pre/postemergence pigweed; format: in vivo, Amaranthus retroflexus
Method in brief: as §1

[11] = tested on: duck salad; test: Test B flood test duck salad; format: in vivo, Heteranthera limosa
Method in brief: as §2

[12] = tested on: bedstraw; test: Test B pre/postemergence bedstraw; format: in vivo, Galium aparine
Method in brief: as §1

[13] = tested on: surinam grass; test: Test B pre/postemergence surinam grass; format: in vivo, Brachiaria decumbens
Method in brief: as §1

[14] = tested on: giant foxtail; test: Test B pre/postemergence giant foxtail; format: in vivo, Setaria faberii
Method in brief: as §1

[15] = tested on: wild oat; test: Test B pre/postemergence wild oat; format: in vivo, Avena fatua
Method in brief: as §1

[16] = tested on: sugar beet; test: Test B pre/postemergence sugar beet; format: in vivo, Beta vulgaris
Method in brief: as §1

[17] = Postemergence, Rate 125 g/ha, scale of 0 to 10 where 0 is no effect and 10 is complete control
[18] = Preemergence, Rate 62 g/ha, scale 0 to 10 (0 no effect, 10 complete control)
[19] = Preemergence, Rate 125 g/ha, 0 is no effect, 10 is complete control
[20] = Preemergence, Rate 250 g/ha, scale 0 to 10, 0 is no effect, 10 is complete control
[21] = Preemergence, Rate 500 g/ha, scale 0 to 10 (0 no effect, 10 complete control)
[22] = Rate 62 g/ha, Postemergence, scale of 0 to 10 where 0 is no effect and 10 is complete control
[23] = Rate 250 g/ha, Postemergence, scale 0 to 10, 0 is no effect, 10 is complete control
[24] = Rate 500 g/ha, Postemergence, scale 0 to 10
[25] = Postemergence (flood test species), Rate 125 g/ha, scale of 0 to 10 where 0 is no effect and 10 is complete control
[26] = Rate 62 g/ha, Postemergence section, flood test species, scale of 0 to 10 where 0 is no effect and 10 is complete control
[27] = Rate 250 g/ha, Postemergence (flood test), scale 0 to 10, 0 is no effect, 10 is complete control
[28] = Rate 500 g/ha, listed under Postemergence (flood test species), scale 0 to 10

In the case of `CCN(CC)C(=O)n1oc(=O)n(Cc2ccccc2)c1=O` [Compound 152], the “Morningglory plant response rating” value [1, 17] is reported as 0, the “Morningglory plant response rating” value [1, 18] is reported as 0 and the “Morningglory plant response rating (0 to 10 scale)” value [1, 19] is reported as 0. For the same molecule, the “Morningglory plant response rating” value [1, 20] was 0, the “Morningglory plant response rating” value [1, 21] was 0 and the “Morningglory plant response rating” value [1, 22] was 0. The “Plant response rating, Morningglory” value [1, 23] was 0, the “Morningglory plant response rating” value [1, 24] was 0 and the “Nutsedge plant response rating” value [2, 17] was 0. For the same molecule, the “Nutsedge plant response rating” value [2, 18] was 0, the “Nutsedge plant response rating (0 to 10 scale)” value [2, 19] was 0 and the “Nutsedge plant response rating” value [2, 20] was 0. The “Nutsedge plant response rating” value [2, 21] was 0, the “Nutsedge plant response rating” value [2, 22] was 0 and the “Plant response rating, Nutsedge” value [2, 23] was 0. The “Nutsedge plant response rating” value [2, 24] was 0, the “S. Flatsedge plant response rating” value [3, 25] was 0 and the “S. Flatsedge plant response rating” value [3, 26] was 0. The “Plant response rating, S. Flatsedge” value [3, 27] was 0, the “S. Flatsedge plant response rating” value [3, 28] was 0 and the “Crabgrass plant response rating” value [4, 17] was 0. For the same molecule, the “Crabgrass plant response rating” value [4, 18] was 0, the “Crabgrass plant response rating (0 to 10 scale)” value [4, 19] was 0 and the “Crabgrass plant response rating” value [4, 20] was 1. For the same molecule, the “Crabgrass plant response rating” value [4, 21] was 3, the “Crabgrass plant response rating” value [4, 22] was 0 and the “Plant response rating, Crabgrass” value [4, 23] was 2. The “Crabgrass plant response rating” value [4, 24] was 3, the “Corn plant response rating” value [5, 17] was 0 and the “Corn plant response rating” value [5, 18] was 0. The “Corn plant response rating (0 to 10 scale)” value [5, 19] was 0, the “Corn plant response rating” value [5, 20] was 0 and the “Corn plant response rating” value [5, 21] was 0. For the same molecule, the “Corn plant response rating” value [5, 22] was 0, the “Plant response rating, Corn” value [5, 23] was 0 and the “Corn plant response rating” value [5, 24] was 0. For the same molecule, the “Soybean plant response rating” value [6, 17] was 0, the “Soybean plant response rating” value [6, 18] was 0 and the “Soybean plant response rating (0 to 10 scale)” value [6, 19] was 0. The “Soybean plant response rating” value [6, 20] was 0, the “Soybean plant response rating” value [6, 21] was 0 and the “Soybean plant response rating” value [6, 22] was 0. The “Plant response rating, Soybean” value [6, 23] was 1, the “Soybean plant response rating” value [6, 24] was 1 and the “Rice plant response rating” value [7, 25] was 0. For the same molecule, the “Rice plant response rating” value [7, 26] was 0, the “Plant response rating, Rice” value [7, 27] was 0 and the “Rice plant response rating” value [7, 28] was 0. The “Blackgrass plant response rating” value [8, 17] was 0, the “Blackgrass plant response rating” value [8, 18] was 0 and the “Blackgrass plant response rating (0 to 10 scale)” value [8, 19] was 0. For the same molecule, the “Blackgrass plant response rating” value [8, 20] was 0, the “Blackgrass plant response rating” value [8, 21] was 3 and the “Blackgrass plant response rating” value [8, 22] was 0. The “Plant response rating, Blackgrass” value [8, 23] was 0, the “Blackgrass plant response rating” value [8, 24] was 2 and the “Cocklebur plant response rating” value [9, 17] was 0. For the same molecule, the “Cocklebur plant response rating” value [9, 18] was 0, the “Cocklebur plant response rating (0 to 10 scale)” value [9, 19] was 0 and the “Cocklebur plant response rating” value [9, 20] was 0. The “Cocklebur plant response rating” value [9, 21] was 0, the “Cocklebur plant response rating” value [9, 22] was 0 and the “Plant response rating, Cocklebur” value [9, 23] was 0. For the same molecule, the “Cocklebur plant response rating” value [9, 24] was 0, the “Redroot pigweed plant response rating” value [10, 17] was 0 and the “Redroot pigweed plant response rating” value [10, 18] was 0. For the same molecule, the “Redroot pigweed plant response rating (0 to 10 scale)” value [10, 19] was 0, the “Redroot pigweed plant response rating” value [10, 20] was 0 and the “Redroot pigweed plant response rating” value [10, 21] was 0. For the same molecule, the “Redroot pigweed plant response rating” value [10, 22] was 0, the “Plant response rating, Redroot pigweed” value [10, 23] was 0 and the “Redroot pigweed plant response rating” value [10, 24] was 0. The “Ducksalad plant response rating” value [11, 25] was 0, the “Ducksalad plant response rating” value [11, 26] was 0 and the “Plant response rating, Ducksalad” value [11, 27] was 0. For the same molecule, the “Ducksalad plant response rating” value [11, 28] was 0, the “Bedstraw plant response rating” value [12, 17] was 0 and the “Bedstraw plant response rating” value [12, 18] was 0. For the same molecule, the “Bedstraw plant response rating (0 to 10 scale)” value [12, 19] was 0, the “Bedstraw plant response rating” value [12, 20] was 0 and the “Bedstraw plant response rating” value [12, 21] was 0. For the same molecule, the “Bedstraw plant response rating” value [12, 22] was 0, the “Plant response rating, Bedstraw” value [12, 23] was 0 and the “Bedstraw plant response rating” value ([12]; Rate 500 g/ha, Postemergence, scale 0 to 10, 0 no effect, 10 complete control) was 0. For the same molecule, the “B. signalgrass plant response rating” value [13, 17] was 0, the “B. signalgrass plant response rating” value [13, 18] was 0 and the “B. signalgrass plant response rating (0 to 10 scale)” value [13, 19] was 4. The “B. signalgrass plant response rating” value [13, 20] was 4, the “B. signalgrass plant response rating” value [13, 21] was 6 and the “B. signalgrass plant response rating” value [13, 22] was 0. For the same molecule, the “Plant response rating, B. signalgrass” value [13, 23] was 0, the “B. signalgrass plant response rating” value ([13]; Rate 500 g/ha, Postemergence, scale of 0 to 10 where 0 is no effect and 10 is complete control) was 0 and the “Giant foxtail plant response rating” value [14, 17] was 0. For the same molecule, the “Giant foxtail plant response rating” value [14, 18] was 0, the “Giant foxtail plant response rating (0 to 10 scale)” value [14, 19] was 0 and the “Giant foxtail plant response rating” value [14, 20] was 3. For the same molecule, the “Giant foxtail plant response rating” value [14, 21] was 5, the “Giant foxtail plant response rating” value [14, 22] was 0 and the “Plant response rating, Giant foxtail” value [14, 23] was 0. For the same molecule, the “Giant foxtail plant response rating” value [14, 24] was 3, the “Wild oats plant response rating” value [15, 18] was 0 and the “Wild oats plant response rating (0 to 10 scale)” value [15, 19] was 0. The “Wild oats plant response rating” value [15, 20] was 0, the “Wild oats plant response rating” value [15, 21] was 0 and the “Wild oats plant response rating” value [15, 22] was 0. For the same molecule, the “Plant response rating, Wild oats” value [15, 23] was 0, the “Wild oats plant response rating” value [15, 24] was 0 and the “Sugarbeets plant response rating” value [16, 17] was 0. The “Sugarbeets plant response rating” value [16, 18] was 0, the “Sugarbeets plant response rating (0 to 10 scale)” value [16, 19] was 0 and the “Sugarbeets plant response rating” value [16, 20] was 0. For the same molecule, the “Sugarbeets plant response rating” value [16, 21] was 0, the “Sugarbeets plant response rating” value [16, 22] was 0 and the “Plant response rating, Sugarbeets” value [16, 23] was 0. For the same molecule, the “Sugarbeets plant response rating” value [16, 24] was 0.
